Data taken from US20110039721A1, “METHOD FOR PREDICTION ABOUT CARCINOGENICITY OF SUBSTANCE IN RODENT” (Chemicals Evaluation and Research Institute, priority 2007, published 2011).

System: mRNA expressed from the genes (A) to (D) in rat liver
Test: Behavior of genes (mRNA expression level, oligo-DNA microarray) in rat liver after 28-day oral administration
Assay type: in vivo
Description: A test solution was prepared by dissolving each of the carcinogens and the non-carcinogens shown in Tables 2 to 6 in the corresponding solvent shown in Tables 2 to 6. Each of the thus prepared test solutions and the solvents used for the preparation was administered by oral gavage to rats in each group. As the rats, male rats (F344 SPF rats) at 5 weeks of age obtained from Charles River Laboratories Japan, Inc. were used. The animals were divided into groups, each containing four individuals. The volume of the solvent administered to the vehicle control group was set to the same volume as that of the test solution administered to the carcinogen administration group or the non-carcinogen administration group. The administration of the test solution or the solvent was performed once daily for 28 days. Apiece was excised from the liver of each of the rats after a lapse of 28 days from the initiation of the administration, and the total RNA was extracted and purified.
The expression level of mRNA was compared between each of the chemical substance administration groups and the corresponding vehicle control group, and genes that satisfy the requirements described in (A) to (D) were selected, respectively.
The case where the expression level of mRNA in the carcinogen administration group or the non-carcinogen administration group is 1.5 times or more or 1/1.5 or less of the expression level of the corresponding mRNA expressed in the control group was determined to be significant. In this connection, the determination as to whether or not the change is significant was performed by taking into consideration the direction of increase or decrease in the expression level. In the case where the direction of increase or decrease is different as compared with the case where another carcinogen was administered, the change was determined to be not significant.

[1] = (C), Unigene Rn.120914, defined direction +, rat liver, oral once daily 28 days
[2] = gene group (A), Unigene No. Rn.144554
[3] = gene group (A), Unigene No. Rn.167075
[4] = gene group (A), Unigene No. Rn.5834
[5] = gene group (A), Unigene No. Rn.9836
[6] = gene group (B), Unigene No. Rn.1430
[7] = gene group (B), Unigene No. Rn.19329
[8] = gene group (B), Unigene No. Rn.21240
[9] = gene group (C), Unigene No. Rn.106184
[10] = gene group (C), Unigene No. Rn.108075
[11] = gene group (C), Unigene No. Rn.11766
[12] = gene group (C), Unigene No. Rn.118529
[13] = gene group (C), Unigene No. Rn.119024
[14] = gene group (C), Unigene No. Rn.120914
[15] = gene group (C), Unigene No. Rn.123063
[16] = gene group (C), Unigene No. Rn.143213
[17] = gene group (C), Unigene No. Rn.144946
[18] = gene group (C), Unigene No. Rn.14744
[19] = gene group (C), Unigene No. Rn.1647
[20] = gene group (C), Unigene No. Rn.164817
[21] = gene group (C), Unigene No. Rn.167685
[22] = gene group (C), Unigene No. Rn.185941
[23] = gene group (C), Unigene No. Rn.18728
[24] = gene group (C), Unigene No. Rn.201760
[25] = gene group (C), Unigene No. Rn.23969
[26] = gene group (C), Unigene No. Rn.24561
[27] = gene group (C), Unigene No. Rn.43232
[28] = gene group (C), Unigene No. Rn.4620
[29] = gene group (C), Unigene No. Rn.9757
[30] = gene group (C), Unigene No. Rn.9779
[31] = gene group (C), Unigene No. Rn.9862
[32] = gene group (D), Unigene No. Rn.9939

COC(N)=O [TS029, Methyl carbamate]
+: Behavior of gene caused by administration of chemical substance, Gene No. 4846 ((A), Unigene Rn.144554, defined direction +, rat liver, oral once daily 28 days) | Behavior of gene caused by administration of chemical substance, Gene No. 4218 ((A), Unigene Rn.167075, defined direction +, rat liver, oral once daily 28 days, significant = 1.5 times or more or 1/1.5 or less of control) | Behavior of gene caused by administration of chemical substance, Gene No. 2026 ((A), Unigene Rn.167075, defined direction −, rat liver, oral once daily 28 days) | Behavior of gene caused by administration of chemical substance, Gene No. 6182 ((A), Unigene Rn.5834, defined direction +, rat liver, oral once daily 28 days) | Behavior of gene caused by administration of chemical substance, Gene No. 5600 ((A), Unigene Rn.9836, defined direction +, rat liver, oral once daily 28 days) | Behavior of gene caused by administration of chemical substance, Gene No. 1494 ((B), Unigene Rn.1430, defined direction −, rat liver, oral once daily 28 days) | Behavior of gene caused by administration of chemical substance, Gene No. 533 ((C), Unigene Rn.106184, defined direction +, rat liver, oral once daily 28 days) | Behavior of gene caused by administration of chemical substance, Gene No. 6303 ((C), Unigene Rn.123063, defined direction −, rat liver, oral once daily 28 days) | Behavior of gene caused by administration of chemical substance, Gene No. 1562 ((C), Unigene Rn.14744, defined direction −, rat liver, oral once daily 28 days) | Behavior of gene caused by administration of chemical substance, Gene No. 1741 ((C), Unigene Rn.1647, defined direction −, rat liver, oral once daily 28 days) | Behavior of gene caused by administration of chemical substance, Gene No. 154 ((C), Unigene Rn.185941, defined direction −, rat liver, oral once daily 28 days) | Behavior of gene caused by administration of chemical substance, Gene No. 1993 ((C), Unigene Rn.18728, defined direction −, rat liver, oral once daily 28 days) | Behavior of gene caused by administration of chemical substance, Gene No. 3776 ((C), Unigene Rn.43232, defined direction −, rat liver, oral once daily 28 days)
−: Behavior of gene caused by administration of chemical substance, Gene No. 2045 ((B), Unigene Rn.19329, defined direction +, rat liver, oral once daily 28 days) | Behavior of gene caused by administration of chemical substance, Gene No. 2203 ((B), Unigene Rn.21240, defined direction +, rat liver, oral once daily 28 days) | Behavior of gene caused by administration of chemical substance, Gene No. 725 ((C), Unigene Rn.108075, defined direction −, rat liver, oral once daily 28 days) | Behavior of gene caused by administration of chemical substance, Gene No. 1163 ((C), Unigene Rn.11766, defined direction +, rat liver, oral once daily 28 days) | Behavior of gene caused by administration of chemical substance, Gene No. 4973 ((C), Unigene Rn.118529, defined direction −, rat liver, oral once daily 28 days) | Behavior of gene caused by administration of chemical substance, Gene No. 4095 ((C), Unigene Rn.119024, defined direction −, rat liver, oral once daily 28 days) | Behavior of gene caused by administration of chemical substance, Gene No. 1334 [1] | Behavior of gene caused by administration of chemical substance, Gene No. 6620 [1] | Behavior of gene caused by administration of chemical substance, Gene No. 5878 ((C), Unigene Rn.143213, defined direction −, rat liver, oral once daily 28 days) | Behavior of gene caused by administration of chemical substance, Gene No. 1131 ((C), Unigene Rn.144946, defined direction −, rat liver, oral once daily 28 days) | Behavior of gene caused by administration of chemical substance, Gene No. 893 ((C), Unigene Rn.164817, defined direction +, rat liver, oral once daily 28 days) | Behavior of gene caused by administration of chemical substance, Gene No. 6026 ((C), Unigene Rn.167685, defined direction −, rat liver, oral once daily 28 days) | Behavior of gene caused by administration of chemical substance, Gene No. 813 ((C), Unigene Rn.201760, defined direction +, rat liver, oral once daily 28 days) | Behavior of gene caused by administration of chemical substance, Gene No. 2494 ((C), Unigene Rn.23969, defined direction +, rat liver, oral once daily 28 days) | Behavior of gene caused by administration of chemical substance, Gene No. 2546 ((C), Unigene Rn.24561, defined direction −, rat liver, oral once daily 28 days) | Behavior of gene caused by administration of chemical substance, Gene No. 3929 ((C), Unigene Rn.4620, defined direction +, rat liver, oral once daily 28 days) | Behavior of gene caused by administration of chemical substance, Gene No. 1119 ((C), Unigene Rn.9757, defined direction +, rat liver, oral once daily 28 days) | Behavior of gene caused by administration of chemical substance, Gene No. 6742 ((C), Unigene Rn.9779, defined direction +, rat liver, oral once daily 28 days) | Behavior of gene caused by administration of chemical substance, Gene No. 5634 ((C), Unigene Rn.9862, defined direction −, rat liver, oral once daily 28 days) | Behavior of gene caused by administration of chemical substance, Gene No. 5726 ((D), Unigene Rn.9939, defined direction −, rat liver, oral once daily 28 days)

CC(=O)Nc1ccc(O)cc1 [TS031, Acetaminophen]
+: Behavior of gene caused by administration of chemical substance, Gene No. 2026 [3] | Behavior of gene caused by administration of chemical substance, Gene No. 1494 [6] | Behavior of gene caused by administration of chemical substance, Gene No. 533 [9] | Behavior of gene caused by administration of chemical substance, Gene No. 1741 [19] | Behavior of gene caused by administration of chemical substance, Gene No. 2546 [26] | Behavior of gene caused by administration of chemical substance, Gene No. 6742 [30]
−: Behavior of gene caused by administration of chemical substance, Gene No. 4846 [2] | Behavior of gene caused by administration of chemical substance, Gene No. 4218 [3] | Behavior of gene caused by administration of chemical substance, Gene No. 6182 [4] | Behavior of gene caused by administration of chemical substance, Gene No. 5600 [5] | Behavior of gene caused by administration of chemical substance, Gene No. 2045 [7] | Behavior of gene caused by administration of chemical substance, Gene No. 2203 [8] | Behavior of gene caused by administration of chemical substance, Gene No. 725 [10] | Behavior of gene caused by administration of chemical substance, Gene No. 1163 [11] | Behavior of gene caused by administration of chemical substance, Gene No. 4973 [12] | Behavior of gene caused by administration of chemical substance, Gene No. 4095 [13] | Behavior of gene caused by administration of chemical substance, Gene No. 1334 [14] | Behavior of gene caused by administration of chemical substance, Gene No. 6620 [14] | Behavior of gene caused by administration of chemical substance, Gene No. 6303 [15] | Behavior of gene caused by administration of chemical substance, Gene No. 5878 [16] | Behavior of gene caused by administration of chemical substance, Gene No. 1131 [17] | Behavior of gene caused by administration of chemical substance, Gene No. 1562 [18] | Behavior of gene caused by administration of chemical substance, Gene No. 893 [20] | Behavior of gene caused by administration of chemical substance, Gene No. 6026 [21] | Behavior of gene caused by administration of chemical substance, Gene No. 154 [22] | Behavior of gene caused by administration of chemical substance, Gene No. 1993 [23] | Behavior of gene caused by administration of chemical substance, Gene No. 813 [24] | Behavior of gene caused by administration of chemical substance, Gene No. 2494 [25] | Behavior of gene caused by administration of chemical substance, Gene No. 3776 [27] | Behavior of gene caused by administration of chemical substance, Gene No. 3929 [28] | Behavior of gene caused by administration of chemical substance, Gene No. 1119 [29] | Behavior of gene caused by administration of chemical substance, Gene No. 5634 [31] | Behavior of gene caused by administration of chemical substance, Gene No. 5726 [32]

C[C@H](CCC(=O)O)[C@H]1CC[C@H]2[C@@H]3CC[C@@H]4C[C@H](O)CC[C@]4(C)[C@H]3CC[C@]12C [TS040, Lithocholic acid]
−: Behavior of gene caused by administration of chemical substance, Gene No. 4846 [2] | Behavior of gene caused by administration of chemical substance, Gene No. 2026 [3] | Behavior of gene caused by administration of chemical substance, Gene No. 4218 [3] | Behavior of gene caused by administration of chemical substance, Gene No. 6182 [4] | Behavior of gene caused by administration of chemical substance, Gene No. 5600 [5] | Behavior of gene caused by administration of chemical substance, Gene No. 1494 [6] | Behavior of gene caused by administration of chemical substance, Gene No. 2045 [7] | Behavior of gene caused by administration of chemical substance, Gene No. 2203 [8] | Behavior of gene caused by administration of chemical substance, Gene No. 533 [9] | Behavior of gene caused by administration of chemical substance, Gene No. 725 [10] | Behavior of gene caused by administration of chemical substance, Gene No. 1163 [11] | Behavior of gene caused by administration of chemical substance, Gene No. 4973 [12] | Behavior of gene caused by administration of chemical substance, Gene No. 4095 [13] | Behavior of gene caused by administration of chemical substance, Gene No. 1334 [14] | Behavior of gene caused by administration of chemical substance, Gene No. 6620 [14] | Behavior of gene caused by administration of chemical substance, Gene No. 6303 [15] | Behavior of gene caused by administration of chemical substance, Gene No. 5878 [16] | Behavior of gene caused by administration of chemical substance, Gene No. 1131 [17] | Behavior of gene caused by administration of chemical substance, Gene No. 1562 [18] | Behavior of gene caused by administration of chemical substance, Gene No. 1741 [19] | Behavior of gene caused by administration of chemical substance, Gene No. 893 [20] | Behavior of gene caused by administration of chemical substance, Gene No. 6026 [21] | Behavior of gene caused by administration of chemical substance, Gene No. 154 [22] | Behavior of gene caused by administration of chemical substance, Gene No. 1993 [23] | Behavior of gene caused by administration of chemical substance, Gene No. 813 [24] | Behavior of gene caused by administration of chemical substance, Gene No. 2494 [25] | Behavior of gene caused by administration of chemical substance, Gene No. 2546 [26] | Behavior of gene caused by administration of chemical substance, Gene No. 3776 [27] | Behavior of gene caused by administration of chemical substance, Gene No. 3929 [28] | Behavior of gene caused by administration of chemical substance, Gene No. 1119 [29] | Behavior of gene caused by administration of chemical substance, Gene No. 5634 [31] | Behavior of gene caused by administration of chemical substance, Gene No. 5726 [32]
+: Behavior of gene caused by administration of chemical substance, Gene No. 6742 [30]
